Data as given in ChEMBL document CHEMBL6109109, “Fatty acid binding protein 5 inhibitors as novel anticancer agents against metastatic castration-resistant prostate cancer” (Bioorg Med Chem, 2025).

How the values were obtained:
[1] = Synergistic anticancer activity against mouse RCaP cells assessed as cell growth inhibition at 5 uM measured after 72 hrs in presence of 0.00001 uM of topotecan by MTT assay relative to control; assay type: functional; conditions: read-out: GI
[2] = Synergistic anticancer activity against mouse RCaP cells assessed as cell growth inhibition at 10 uM measured after 72 hrs in presence of 0.1 uM of topotecan by MTT assay relative to control; assay type: functional; conditions: read-out: GI
[3] = Synergistic anticancer activity against mouse RCaP cells assessed as cell growth inhibition at 5 uM measured after 72 hrs in presence of 0.01 uM of topotecan by MTT assay relative to control; assay type: functional; conditions: read-out: GI
[4] = Synergistic anticancer activity against mouse RCaP cells assessed as cell growth inhibition at 20 uM measured after 72 hrs in presence of 0.00001 uM of topotecan by MTT assay relative to control; assay type: functional; conditions: read-out: GI
[5] = test system: PC-3; assay: Synergistic anticancer activity against human PC-3 cells assessed as cell growth inhibition at 5 uM measured after 72 hrs in presence of 10 uM of topotecan by MTT assay relative to control; assay type: functional; conditions: read-out: GI
[6] = Synergistic anticancer activity against mouse RCaP cells assessed as cell growth inhibition at 5 uM measured after 72 hrs in presence of 0.001 uM of topotecan by MTT assay relative to control; assay type: functional; conditions: read-out: GI
[7] = Binding affinity to FABP5 (unknown origin); parameters: species or system Homo sapiens
[8] = Synergistic anticancer activity against mouse RCaP cells assessed as cell growth inhibition at […] measured after 72 hrs in presence of 0.001 uM of topotecan by MTT assay relative to control; assay type: functional; conditions: dose 2.5 µM, read-out: GI
[9] = Synergistic anticancer activity against mouse RCaP cells assessed as cell growth inhibition at 20 uM measured after 72 hrs in presence of 10 uM of topotecan by MTT assay relative to control; assay type: functional; conditions: read-out: GI
[10] = test system: PC-3; assay: Synergistic anticancer activity against human PC-3 cells assessed as cell growth inhibition at 5 uM measured after 72 hrs in presence of 0.001 uM of topotecan by MTT assay relative to control; assay type: functional; conditions: read-out: GI
[11] = test system: PC-3; assay: Synergistic anticancer activity against human PC-3 cells assessed as cell growth inhibition at 20 uM measured after 72 hrs in presence of 0.00001 uM of topotecan by MTT assay relative to control; assay type: functional; conditions: read-out: GI
[12] = test system: PC-3; assay: Synergistic anticancer activity against human PC-3 cells assessed as cell growth inhibition at 5 uM measured after 72 hrs in presence of 0.1 uM of topotecan by MTT assay relative to control; assay type: functional; conditions: read-out: GI
[13] = test system: PC-3; assay: Synergistic anticancer activity against human PC-3 cells assessed as cell growth inhibition at 10 uM measured after 72 hrs in presence of 0.0001 uM of topotecan by MTT assay relative to control; assay type: functional; conditions: read-out: GI
[14] = test system: PC-3; assay: Synergistic anticancer activity against human PC-3 cells assessed as cell growth inhibition at 5 uM measured after 72 hrs in presence of 0.01 uM of topotecan by MTT assay relative to control; assay type: functional; conditions: read-out: GI
[15] = Cytotoxicity against mouse RCap cells assessed as reduction in cell viability measured after 72 hrs by MTT assay; assay type: functional, cell-based
[16] = Cytotoxicity against human WI-38 cells assessed as reduction in cell viability measured after 72 hrs by MTT assay; assay type: toxicity, cell-based
[17] = Synergistic anticancer activity against mouse RCaP cells assessed as cell growth inhibition at 5 uM measured after 72 hrs in presence of 0.0001 uM of topotecan by MTT assay relative to control; assay type: functional; conditions: read-out: GI
[18] = test system: PC-3; assay: Synergistic anticancer activity against human PC-3 cells assessed as cell growth inhibition at 20 uM measured after 72 hrs in presence of 10 uM of topotecan by MTT assay relative to control; assay type: functional; conditions: read-out: GI
[19] = test system: PC-3; assay: Synergistic anticancer activity against human PC-3 cells assessed as cell growth inhibition at 10 uM measured after 72 hrs in presence of 0.00001 uM of topotecan by MTT assay relative to control; assay type: functional; conditions: read-out: GI
[20] = Synergistic anticancer activity against mouse RCaP cells assessed as cell growth inhibition at […] measured after 72 hrs in presence of 0.1 uM of topotecan by MTT assay relative to control; assay type: functional; conditions: dose 2.5 µM, read-out: GI
[21] = test system: PC-3; assay: Cytotoxicity against human PC-3 cells assessed as cell growth inhibition at 5 uM measured after 72 hrs by MTT assay relative to control; assay type: functional; conditions: read-out: GI
[22] = test system: PC-3; assay: Cytotoxicity against human PC-3 cells assessed as reduction in cell viability measured after 72 hrs by MTT assay; assay type: functional, cell-based; conditions: PC-3, 72 h
[23] = Synergistic anticancer activity against mouse RCaP cells assessed as cell growth inhibition at […] measured after 72 hrs in presence of 0.00001 uM of topotecan by MTT assay relative to control; assay type: functional; conditions: dose 2.5 µM, read-out: GI
[24] = Synergistic anticancer activity against mouse RCaP cells assessed as cell growth inhibition at 20 uM measured after 72 hrs in presence of 0.0001 uM of topotecan by MTT assay relative to control; assay type: functional; conditions: read-out: GI
[25] = Synergistic anticancer activity against mouse RCaP cells assessed as cell growth inhibition at 10 uM measured after 72 hrs in presence of 10 uM of topotecan by MTT assay relative to control; assay type: functional; conditions: read-out: GI
[26] = test system: PC-3; assay: Induction of apoptosis in human PC-3 cells assessed as necrotic cells at 15 uM measured after 72 hrs by Annexin V-FITC/propidium iodide staining based FACS analysis (reference value: 0.11%); assay type: functional
[27] = test system: PC-3; assay: Induction of apoptosis in human PC-3 cells assessed as late apoptotic cells at 15 uM measured after 72 hrs by Annexin V-FITC/propidium iodide staining based FACS analysis (reference value: 1.73%); assay type: functional
[28] = test system: PC-3; assay: Induction of apoptosis in human PC-3 cells assessed as viable cells at 15 uM measured after 72 hrs by Annexin V-FITC/propidium iodide staining based FACS analysis (reference value: 97.62%); assay type: functional; conditions: read-out: Activity
[29] = test system: PC-3; assay: Induction of apoptosis in human PC-3 cells assessed as early apoptotic cells at 15 uM measured after 72 hrs by Annexin V-FITC/propidium iodide staining based FACS analysis (reference value: 0.54%); assay type: functional
[30] = test system: PC-3; assay: Synergistic anticancer activity against human PC-3 cells assessed as cell growth inhibition at […] measured after 72 hrs in presence of 0.001 uM of topotecan by MTT assay relative to control; assay type: functional; conditions: dose 2.5 µM, read-out: GI
[31] = Synergistic anticancer activity against mouse RCaP cells assessed as cell growth inhibition at 1.25 uM measured after 72 hrs in presence of 10 uM of topotecan by MTT assay relative to control; assay type: functional; conditions: read-out: GI
[32] = test system: PC-3; assay: Synergistic anticancer activity against human PC-3 cells assessed as cell growth inhibition at […] measured after 72 hrs in presence of 0.1 uM of topotecan by MTT assay relative to control; assay type: functional; conditions: dose 2.5 µM, read-out: GI
[33] = Synergistic anticancer activity against mouse RCaP cells assessed as cell growth inhibition at 0.625 uM measured after 72 hrs in presence of 0.1 uM of topotecan by MTT assay relative to control; assay type: functional; conditions: read-out: GI
[34] = test system: PC-3; assay: Synergistic anticancer activity against human PC-3 cells assessed as cell growth inhibition at 0.625 uM measured after 72 hrs in presence of 0.0001 uM of topotecan by MTT assay relative to control; assay type: functional; conditions: read-out: GI
[35] = test system: PC-3; assay: Synergistic anticancer activity against human PC-3 cells assessed as cell growth inhibition at […] measured after 72 hrs in presence of 0.01 uM of topotecan by MTT assay relative to control; assay type: functional; conditions: dose 2.5 µM, read-out: GI

Structure (SMILES) | inhibition of growth at 5 µM [1] [%] | inhibition of growth at 10 µM [2] [%] | inhibition of growth at 5 µM [3] [%] | inhibition of growth at 20 µM [4] [%] | inhibition of growth at 5 µM [5] [%] | inhibition of growth at 5 µM [6] [%] | inhibition of growth at […] [8] [%] | inhibition of growth at 20 µM [9] [%] | inhibition of growth at 5 µM [10] [%] | inhibition of growth at 20 µM [11] [%] | inhibition of growth at 5 µM [12] [%] | inhibition of growth at 10 µM [13] [%] | inhibition of growth at 5 µM [14] [%] | IC50 at 72 h [16] [µM] | inhibition of growth at 5 µM [17] [%] | inhibition of growth at 20 µM [18] [%] | inhibition of growth at 10 µM [19] [%] | inhibition of growth at […] [20] [%] | inhibition of growth at 5 µM [21] [%] | IC50 [22] [µM] | other results
O=C(O)[C@H]1[C@H](c2ccccc2)[C@H](C(=O)Oc2cc(-c3ccc4c(c3)OCO4)ccc2-c2ccccc2)[C@H]1c1ccccc1 | 27 | 97.2 | 34.4 | 97.6 | 80.8 | 28.3 | 6.33 | 99.2 | 29.1 | 98.1 | 49.9 | 78.5 | 35.2 | 19.5 | 24.6 | 98.2 | 78.9 | 82 | 28.4 | 9.89 | Ki [7]: 660 nM; IC50 [15]: 12.3 µM; inhibition of growth at […] [23]: 5.43%; inhibition of growth at 20 µM [24]: 96.7%; inhibition of growth at 10 µM [25]: 99.9%
COc1ccccc1[C@H]1[C@H](C(=O)O)[C@H](c2ccccc2OC)[C@H]1C(=O)OCC1c2ccccc2-c2ccccc21 | 9.57 | 94.3 | 31.8 | 98.1 | 86.4 | 32.3 | 6.8 | 99.3 | 28.7 | 99.3 | 56.3 | 59.3 | 34.6 | 23 | 17.6 | 92.3 | 56.3 | 86.6 | 7.5 | 10.5 | Activity [26]: 0.3%; Activity [27]: 5.63%; viability at 15 µM [28]: 88.7%; inhibition of growth at […] [23]: 0.97%; Activity [29]: 5.38%; inhibition of growth at 20 µM [24]: 97.5%; inhibition of growth at 10 µM [25]: 99.2%
COc1ccccc1[C@H]1[C@H](C(=O)O)[C@H](c2ccccc2OC)[C@H]1C(=O)Oc1cc(-c2ccc3c(c2)OCO3)ccc1-c1ccccc1 | 27.6 | 89.9 | 49.6 | 100 | 92.5 | 36.1 | 1.77 | 100 | 43.5 | 99.7 | 66.6 | 67.7 | 57.7 | 10.8 | 26.8 | 98.8 | 69.5 | 89.9 | 30.7 | 6.52 | inhibition of growth at […] [30]: 34.3%; Activity [26]: 1.25%; Activity [27]: 52.11%; Ki [7]: 650 nM; inhibition of growth at 1.25 µM [31]: 99.2%; inhibition of growth at […] [32]: 67.4%; IC50 [15]: 3.44 µM; inhibition of growth at 0.625 µM [33]: 90.2%; inhibition of growth at 0.625 µM [34]: 8.03%; inhibition of growth at […] [35]: 54.6%; viability at 15 µM [28]: 25.8%; inhibition of growth at […] [23]: -1.97%; Activity [29]: 20.86%; inhibition of growth at 20 µM [24]: 100%; inhibition of growth at 10 µM [25]: 97%
